Data: ChEMBL document CHEMBL2203016, “Purpuroines A-J, halogenated alkaloids from the sponge Iotrochota purpurea with antibiotic activity and regulation of tyrosine kinases” (Bioorg Med Chem, 2012)
Values after ≈ are worked out from the molar mass of the structure shown. Active and inactive are the calls of the source. No cut-off for these calls is given here.

Key:
Aspergillus fumigatus [1] = experiment: Antimicrobial activity against Aspergillus fumigatus at 20 ug/ml by microplate reader analysis; format: functional, organism-based
Streptococcus pneumoniae [2] = experiment: Antimicrobial activity against Streptococcus pneumoniae at 20 ug/ml by microplate reader analysis; format: functional, organism-based
Fusarium oxysporum = experiment: Antimicrobial activity against Fusarium oxysporum by microplate reader analysis; format: functional, organism-based
Aspergillus flavus = experiment: Antimicrobial activity against Aspergillus flavus by microplate reader analysis; format: functional, organism-based
Pseudomonas aeruginosa = experiment: Antimicrobial activity against Pseudomonas aeruginosa by microplate reader analysis; format: functional, organism-based
Escherichia coli = experiment: Antimicrobial activity against Escherichia coli by microplate reader analysis; format: functional, organism-based
Staphylococcus aureus = experiment: Antimicrobial activity against Staphylococcus aureus by microplate reader analysis; format: functional, organism-based
Saccharomyces cerevisiae = experiment: Antimicrobial activity against Saccharomyces cerevisiae by microplate reader analysis; format: functional, organism-based
Candida albicans [3] = experiment: Antimicrobial activity against Candida albicans at 20 ug/ml by microplate reader analysis; format: functional, organism-based
Aspergillus fumigatus [4] = experiment: Antimicrobial activity against Aspergillus fumigatus by microplate reader analysis; format: functional, organism-based
Candida albicans [5] = experiment: Antimicrobial activity against Candida albicans by microplate reader analysis; format: functional, organism-based
Streptococcus pneumoniae [6] = experiment: Antimicrobial activity against Streptococcus pneumoniae by microplate reader analysis; format: functional, organism-based
[7] = target: Tyrosine-protein kinase Lck (Homo sapiens, UniProt P06239); experiment: Inhibition of LCK
Chain of Tyrosine-protein kinase Lck (P06239 whole entry): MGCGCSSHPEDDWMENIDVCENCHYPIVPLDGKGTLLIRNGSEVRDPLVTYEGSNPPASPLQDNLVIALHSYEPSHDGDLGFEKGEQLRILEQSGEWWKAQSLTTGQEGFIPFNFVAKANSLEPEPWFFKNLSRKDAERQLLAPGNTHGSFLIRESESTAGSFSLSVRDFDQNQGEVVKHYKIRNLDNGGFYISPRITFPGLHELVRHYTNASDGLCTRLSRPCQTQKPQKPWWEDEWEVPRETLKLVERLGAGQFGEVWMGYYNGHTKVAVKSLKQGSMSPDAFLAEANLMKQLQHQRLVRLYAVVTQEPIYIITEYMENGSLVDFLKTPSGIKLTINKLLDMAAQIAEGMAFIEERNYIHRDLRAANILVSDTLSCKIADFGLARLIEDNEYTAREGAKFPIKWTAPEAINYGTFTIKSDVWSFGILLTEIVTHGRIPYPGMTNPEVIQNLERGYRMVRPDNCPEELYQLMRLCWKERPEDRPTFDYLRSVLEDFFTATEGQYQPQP

[8] = target: Serine/threonine-protein kinase PLK1 (Homo sapiens, UniProt P53350); experiment: Inhibition of PLK1
Chain of Serine/threonine-protein kinase PLK1 (P53350 whole entry): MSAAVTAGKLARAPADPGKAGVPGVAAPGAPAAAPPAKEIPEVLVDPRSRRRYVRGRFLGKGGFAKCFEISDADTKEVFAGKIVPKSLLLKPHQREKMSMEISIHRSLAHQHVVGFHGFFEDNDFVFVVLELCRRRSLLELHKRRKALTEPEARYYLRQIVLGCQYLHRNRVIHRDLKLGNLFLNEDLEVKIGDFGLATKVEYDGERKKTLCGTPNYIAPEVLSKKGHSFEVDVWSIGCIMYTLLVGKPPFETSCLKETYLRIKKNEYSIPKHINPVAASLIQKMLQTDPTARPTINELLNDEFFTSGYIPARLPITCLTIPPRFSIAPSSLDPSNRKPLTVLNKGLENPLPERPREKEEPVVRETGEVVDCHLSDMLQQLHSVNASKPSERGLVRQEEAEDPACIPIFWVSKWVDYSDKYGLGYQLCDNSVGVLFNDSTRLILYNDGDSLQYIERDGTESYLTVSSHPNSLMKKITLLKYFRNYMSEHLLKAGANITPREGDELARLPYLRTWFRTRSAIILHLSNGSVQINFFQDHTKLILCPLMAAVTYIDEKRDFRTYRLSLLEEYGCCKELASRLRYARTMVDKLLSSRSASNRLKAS

[9] = target: Cyclin-dependent kinase 2 (Homo sapiens, UniProt P24941); experiment: Inhibition of CDK2
[10] = Aspergillus fumigatus, read-out: IC50
[11] = Candida albicans, read-out: IC50
[12] = Streptococcus pneumoniae, read-out: IC50

| IC50 (Aspergillus fumigatus [4]; [10]) | IC50 (Candida albicans [5]; [11]) | IC50 (Streptococcus pneumoniae [6]; [12]) | IC50 [7] | IC50 (Candida albicans [5]) | IC50 (Streptococcus pneumoniae [6]) | IC50 [8] | IC50 [9] | IC50 (Aspergillus fumigatus [4]) | Compound | Activity (Aspergillus fumigatus [1]) | Activity (Streptococcus pneumoniae [2]) | Activity (Fusarium oxysporum) | Activity (Aspergillus flavus) | Activity (Pseudomonas aeruginosa) | Activity (Escherichia coli) | Activity (Staphylococcus aureus) | Activity (Saccharomyces cerevisiae) | Activity (Candida albicans [3]) |
| --- | --- | --- | --- | --- | --- | --- | --- | --- | --- | --- | --- | --- | --- | --- | --- | --- | --- | --- |
|  |  |  |  |  |  |  |  |  | C[N+](C)(C)[C@H](CCOc1c(Cl)cc(Br)cc1Br)C(=O)[O-] | inactive | inactive | Active | Active | Active | Active | Active | Active | inactive |
|  |  |  |  |  |  |  |  |  | COC(=O)[C@@H](Cc1c[nH]c2cc(Br)ccc12)[N+](C)(C)C (racemic) | inactive | inactive | Active | Active | Active | Active | Active | Active | inactive |
| 3.27 µg/mL (≈ 3.54 µM) | 4.26 µg/mL (≈ 4.61 µM) |  |  |  |  |  |  |  | C[C@@H]1[C@H](O)[C@@H](C)/C=C/C=C/C=C/C=C/C=C/C=C/C=C/[C@H](O[C@@H]2O[C@H](C)[C@@H](O)[C@H](N)[C@@H]2O)C[C@@H]2O[C@](O)(C[C@@H](O)C[C@@H](O)[C@H](O)CC[C@@H](O)C[C@@H](O)CC(=O)O[C@H]1C)C[C@H](O)[C@H]2C(=O)O [AMPHOTERICIN B] |  |  |  |  |  |  |  |  |  |
|  |  | 0.38 µg/mL (≈ 1.09 µM) |  |  |  |  |  |  | CC1(C)S[C@@H]2[C@H](NC(=O)[C@H](N)c3ccccc3)C(=O)N2[C@H]1C(=O)O [AMPICILLIN] |  |  |  |  |  |  |  |  |  |
| 28.6 µg/mL (≈ 60.3 µM) |  |  | 4.96 µM | Not Active | Not Active | > 105 µM | > 105 µM |  | C[N+](C)(C)[C@H](CCOc1c(Br)cc(Br)cc1Br)C(=O)[O-] [PURPUROINE A] |  |  |  |  |  |  |  |  |  |
|  |  |  | 32.3 µM |  |  | > 127 µM | > 127 µM |  | C[N+](C)(C)[C@H](CCOc1ccc(Br)cc1Br)C(=O)[O-] [PURPUROINE B] | inactive | inactive | Active | Active | Active | Active | Active | Active | inactive |
| 26.1 µg/mL (≈ 67.7 µM) |  |  | 11.7 µM | Not Active | Not Active | 17.8 µM | > 130 µM |  | C[N+](C)(C)[C@H](CCOc1c(Cl)cc(Br)cc1Cl)C(=O)[O-] [PURPUROINE C] |  |  |  |  |  |  |  |  |  |
| 25.6 µg/mL (≈ 49.1 µM) | 19 µg/mL (≈ 36.5 µM) |  | 1.8 µM |  | Not Active | 2.78 µM | > 96 µM |  | C[N+](C)(C)[C@H](CCOc1c(Br)cc(Br)cc1I)C(=O)[O-] [PURPUROINE D] |  |  |  |  |  |  |  |  |  |
|  |  |  | 14.7 µM |  |  | 9.24 µM | > 102 µM |  | COc1c(I)cc(C[C@H](C(=O)[O-])[N+](C)(C)C)cc1I [PURPUROINE F] | inactive | inactive | Active | Active | Active | Active | Active | Active | inactive |
|  |  |  | 25 µM |  |  | 21.2 µM | > 105 µM |  | C[N+](C)(C)[C@H](Cc1cc(I)c(O)c(I)c1)C(=O)[O-] [PURPUROINE G] | inactive | inactive | Active | Active | Active | Active | Active | Active | inactive |
|  |  |  | 17.9 µM |  |  | 17.1 µM | > 113 µM |  | COc1c(Br)cc(C[C@H](C(=O)[O-])[N+](C)(C)C)cc1I [PURPUROINE H] |  |  |  |  |  |  |  |  |  |
|  |  | 18.1 µg/mL (≈ 42.2 µM) | > 117 µM | Not Active |  | > 117 µM | > 117 µM | Not Active | C[N+](C)(C)[C@H](Cc1cc(Br)c(O)c(I)c1)C(=O)[O-] [PURPUROINE I] | inactive | inactive |  |  |  |  |  |  | inactive |
